Data: the NIST ThermoML archive (doi:10.1007/s10765-006-0100-z)

Experiments:
[1] = 101 kPa, Liquid; for mass density: Vibrating tube method
[2] = xn = mol fraction of the nth substance listed; details: 101 kPa, Liquid; for mass density: Vibrating tube method

CCCCCl [1-chlorobutane]
[1]
Details	kinematic viscosity [m2/s]	mass density [kg/m3]
298.15 K	4.78e-07	880.69
313.15 K	4.21e-07	863.82

CC(C)(C)Cl [2-chloro-2-methylpropane]
[1]
Details	kinematic viscosity [m2/s]	mass density [kg/m3]
298.15 K	5.68e-07	836.45
313.15 K	4.77e-07	818.31

C1CCOCC1 [tetrahydropyran] + CCC(C)Cl
[2], x1 = 1
Details	kinematic viscosity [m2/s]	mass density [kg/m3]
298.15 K	9.1e-07	878.81
313.15 K	7.57e-07	863.67

C1CCOCC1 [tetrahydropyran] + CC(C)(C)Cl
[2], x1 = 1
Details	kinematic viscosity [m2/s]	mass density [kg/m3]
298.15 K	9.1e-07	878.81
313.15 K	7.57e-07	863.67

C1CCOCC1 [tetrahydropyran] + CCCCCl
[2], x1 = 1
Details	kinematic viscosity [m2/s]	mass density [kg/m3]
298.15 K	9.1e-07	878.81
313.15 K	7.57e-07	863.67

C1CCOCC1 [tetrahydropyran]
[1]
Details	kinematic viscosity [m2/s]	mass density [kg/m3]
298.15 K	9.1e-07	878.81
313.15 K	7.57e-07	863.67

CC(C)CCl [1-chloro-2-methylpropane] + C1CCOCC1
[2]
Details	kinematic viscosity [m2/s]	mass density [kg/m3]
298.15 K, x2 = 0	4.93e-07	871.13
298.15 K, x2 = 0.048	–	871.69
298.15 K, x2 = 0.054	5.06e-07	–
298.15 K, x2 = 0.1069	5.19e-07	–
298.15 K, x2 = 0.1084	–	872.39
298.15 K, x2 = 0.2033	5.46e-07	–
298.15 K, x2 = 0.212	–	873.53
298.15 K, x2 = 0.29	–	874.38
298.15 K, x2 = 0.311	5.78e-07	–
298.15 K, x2 = 0.3951	–	875.37
298.15 K, x2 = 0.4126	6.11e-07	–
298.15 K, x2 = 0.504	6.45e-07	–
298.15 K, x2 = 0.5062	–	876.3
298.15 K, x2 = 0.595	6.82e-07	–
298.15 K, x2 = 0.6273	–	877.23
298.15 K, x2 = 0.6897	–	877.63
298.15 K, x2 = 0.6954	7.27e-07	–
298.15 K, x2 = 0.8028	7.83e-07	–
298.15 K, x2 = 0.8111	–	878.26
298.15 K, x2 = 0.9066	8.46e-07	–
298.15 K, x2 = 0.9088	–	878.68
298.15 K, x2 = 0.952	–	878.79
298.15 K, x2 = 0.9578	8.8e-07	–
313.15 K, x2 = 0	4.29e-07	853.51
313.15 K, x2 = 0.0432	–	854.17
313.15 K, x2 = 0.054	4.4e-07	–
313.15 K, x2 = 0.0934	–	854.93
313.15 K, x2 = 0.1069	4.51e-07	–
313.15 K, x2 = 0.1923	–	856.35
313.15 K, x2 = 0.2033	4.72e-07	–
313.15 K, x2 = 0.3025	–	857.83
313.15 K, x2 = 0.311	4.97e-07	–
313.15 K, x2 = 0.406	–	859.08
313.15 K, x2 = 0.4126	5.23e-07	–
313.15 K, x2 = 0.5018	–	860.14
313.15 K, x2 = 0.504	5.5e-07	–
313.15 K, x2 = 0.595	5.8e-07	–
313.15 K, x2 = 0.6079	–	861.19
313.15 K, x2 = 0.6954	6.16e-07	–
313.15 K, x2 = 0.7238	–	862.24
313.15 K, x2 = 0.7895	–	862.78
313.15 K, x2 = 0.8028	6.6e-07	–
313.15 K, x2 = 0.8874	–	863.42
313.15 K, x2 = 0.9066	7.07e-07	–
313.15 K, x2 = 0.9463	–	863.68
313.15 K, x2 = 0.9578	7.33e-07	–

CCC(C)Cl (stereo not drawn) [2-chlorobutane] + C1CCOCC1
[2]
Details	kinematic viscosity, 298.15 K [m2/s]	kinematic viscosity, 313.15 K [m2/s]	mass density, 298.15 K [kg/m3]	mass density, 313.15 K [kg/m3]
x2 = 0	4.54e-07	3.96e-07	867.37	850.13
x2 = 0.0525	–	–	868.05	–
x2 = 0.0605	4.66e-07	4.09e-07	–	851.11
x2 = 0.1035	–	–	869.06	–
x2 = 0.1166	4.8e-07	4.22e-07	–	852.02
x2 = 0.1947	–	–	870.26	–
x2 = 0.2131	5.08e-07	4.45e-07	–	853.59
x2 = 0.3042	–	–	871.8	–
x2 = 0.3174	5.42e-07	4.72e-07	–	855.4
x2 = 0.4088	5.75e-07	4.97e-07	–	857
x2 = 0.4091	–	–	872.95	–
x2 = 0.4994	6.11e-07	5.25e-07	–	858.35
x2 = 0.5025	–	–	874.28	–
x2 = 0.5947	–	–	875.42	–
x2 = 0.6122	6.62e-07	5.66e-07	–	859.58
x2 = 0.7108	7.14e-07	6.06e-07	–	861.03
x2 = 0.7116	–	–	876.72	–
x2 = 0.8059	7.69e-07	6.49e-07	–	862.1
x2 = 0.809	–	–	877.46	–
x2 = 0.8917	–	–	878.36	–
x2 = 0.9023	8.34e-07	6.97e-07	–	862.9
x2 = 0.9549	8.73e-07	7.28e-07	–	863.45
x2 = 0.9599	–	–	878.55	–

C1CCOCC1 [tetrahydropyran] + CC(C)CCl
[2], x1 = 1
Details	kinematic viscosity [m2/s]	mass density [kg/m3]
298.15 K	9.1e-07	878.81
313.15 K	7.57e-07	863.67

CC(C)CCl [1-chloro-2-methylpropane]
[1]
Details	kinematic viscosity [m2/s]	mass density [kg/m3]
298.15 K	4.93e-07	871.13
313.15 K	4.29e-07	853.51

CCCCCl [1-chlorobutane] + C1CCOCC1
[2]
Details	kinematic viscosity [m2/s]	mass density [kg/m3]
298.15 K, x2 = 0	4.78e-07	880.69
298.15 K, x2 = 0.0243	4.84e-07	–
298.15 K, x2 = 0.0521	–	880.67
298.15 K, x2 = 0.1006	–	880.66
298.15 K, x2 = 0.1039	5.02e-07	–
298.15 K, x2 = 0.1949	–	880.62
298.15 K, x2 = 0.2058	5.29e-07	–
298.15 K, x2 = 0.2549	–	880.59
298.15 K, x2 = 0.307	5.59e-07	–
298.15 K, x2 = 0.3774	–	880.48
298.15 K, x2 = 0.3984	5.89e-07	–
298.15 K, x2 = 0.5035	–	880.26
298.15 K, x2 = 0.5077	6.3e-07	–
298.15 K, x2 = 0.5948	–	880.06
298.15 K, x2 = 0.6038	6.69e-07	–
298.15 K, x2 = 0.661	–	879.87
298.15 K, x2 = 0.7064	7.18e-07	–
298.15 K, x2 = 0.7893	–	879.49
298.15 K, x2 = 0.7994	7.68e-07	–
298.15 K, x2 = 0.9058	8.37e-07	–
298.15 K, x2 = 0.9203	–	879.07
298.15 K, x2 = 0.9498	8.7e-07	–
298.15 K, x2 = 0.9666	–	878.91
313.15 K, x2 = 0	4.21e-07	863.82
313.15 K, x2 = 0.0243	4.28e-07	–
313.15 K, x2 = 0.0348	–	863.98
313.15 K, x2 = 0.0899	–	864.19
313.15 K, x2 = 0.1039	4.42e-07	–
313.15 K, x2 = 0.1717	–	864.39
313.15 K, x2 = 0.2058	4.63e-07	–
313.15 K, x2 = 0.2933	–	864.54
313.15 K, x2 = 0.307	4.86e-07	–
313.15 K, x2 = 0.3984	5.09e-07	–
313.15 K, x2 = 0.413	–	864.6
313.15 K, x2 = 0.4926	–	864.61
313.15 K, x2 = 0.5077	5.4e-07	–
313.15 K, x2 = 0.6026	–	864.59
313.15 K, x2 = 0.6038	5.72e-07	–
313.15 K, x2 = 0.7064	6.1e-07	–
313.15 K, x2 = 0.7085	–	864.52
313.15 K, x2 = 0.7994	6.49e-07	–
313.15 K, x2 = 0.8006	–	864.45
313.15 K, x2 = 0.899	–	864.22
313.15 K, x2 = 0.9058	7.01e-07	–
313.15 K, x2 = 0.9498	7.25e-07	–
313.15 K, x2 = 0.9724	–	863.88

CCC(C)Cl (stereo not drawn) [2-chlorobutane]
[1]
Details	kinematic viscosity [m2/s]	mass density [kg/m3]
298.15 K	4.54e-07	867.37
313.15 K	3.96e-07	850.13

CC(C)(C)Cl [2-chloro-2-methylpropane] + C1CCOCC1
[2]
Details	kinematic viscosity [m2/s]	mass density [kg/m3]
298.15 K, x2 = 0	5.68e-07	836.45
298.15 K, x2 = 0.0324	–	838.08
298.15 K, x2 = 0.0614	5.84e-07	–
298.15 K, x2 = 0.1075	5.96e-07	–
298.15 K, x2 = 0.1086	–	842.07
298.15 K, x2 = 0.2097	–	847.11
298.15 K, x2 = 0.2173	6.27e-07	–
298.15 K, x2 = 0.2891	–	851.05
298.15 K, x2 = 0.3205	6.57e-07	–
298.15 K, x2 = 0.42	6.88e-07	–
298.15 K, x2 = 0.4276	–	857.41
298.15 K, x2 = 0.496	–	860.32
298.15 K, x2 = 0.5176	7.2e-07	–
298.15 K, x2 = 0.6107	–	864.98
298.15 K, x2 = 0.6155	7.54e-07	–
298.15 K, x2 = 0.6483	–	866.46
298.15 K, x2 = 0.7156	7.91e-07	–
298.15 K, x2 = 0.8093	–	872.39
298.15 K, x2 = 0.8277	8.35e-07	–
298.15 K, x2 = 0.8606	–	874.22
298.15 K, x2 = 0.9097	8.7e-07	–
298.15 K, x2 = 0.954	–	877.25
298.15 K, x2 = 0.9547	8.89e-07	–
313.15 K, x2 = 0	4.77e-07	818.31
313.15 K, x2 = 0.0451	4.87e-07	–
313.15 K, x2 = 0.0584	–	821.7
313.15 K, x2 = 0.0875	–	823.35
313.15 K, x2 = 0.0887	4.97e-07	–
313.15 K, x2 = 0.1943	–	829.15
313.15 K, x2 = 0.1978	5.21e-07	–
313.15 K, x2 = 0.3028	–	834.83
313.15 K, x2 = 0.3053	5.47e-07	–
313.15 K, x2 = 0.3972	5.7e-07	–
313.15 K, x2 = 0.4249	–	840.83
313.15 K, x2 = 0.4929	–	843.99
313.15 K, x2 = 0.5024	5.98e-07	–
313.15 K, x2 = 0.6093	–	849.16
313.15 K, x2 = 0.6359	6.36e-07	–
313.15 K, x2 = 0.7052	–	853.15
313.15 K, x2 = 0.7056	6.57e-07	–
313.15 K, x2 = 0.796	6.86e-07	–
313.15 K, x2 = 0.7988	–	856.89
313.15 K, x2 = 0.9063	7.23e-07	–
313.15 K, x2 = 0.9097	–	860.95
313.15 K, x2 = 0.9526	7.4e-07	–
313.15 K, x2 = 0.9614	–	862.64
